Data reported in patent publication US20100248229A1, “INVITRO HUMAN EMBRYONIC MODEL AND A METHOD THEREOF” (Stempeutics Research Private Limited, priority 2007, published 2010).
Entries after “also recorded” stand apart in the source; their conditions may differ.

Legend:
Assay type in all cases: cell-based, human
hESCs (EB formation) = test: Effect on the formation of EBs from hESCs; conditions: 10 pg/ml and above
Experimental: Human Embryonic Stem Cells (hESCs) cultured on feeder cells of mouse or human origin, or cultured in feeder free conditions were exposed to several different dilutions of the drug for 6 days and subjected to Embryoid Body (EB) formation on non adherent plates, in presence of the drug for another 4 days. The control set was free from any extraneous addition of drugs. The formation of normal EBs in the control was evaluated by testing the expression of all the germ lineage, pluripotency and epigenomic markers as given in table Nos. 1-7 by RT-PCR, Flow Cytometry and Immunofluorescence. Alteration in the expression profiles of these genes in the treated EBs indicated a detrimental effect on embryonic development. A failure to form nicely cavitating EBs, as observed under the microscope, or a delay in the formation of the EBs as compared to the control indicated a possible embryo toxic effect of the drug.
The effect of molecules/compounds was screened. The compound, such as Rho Kinases inhibitor Y27632, 5-Azacytidine, and gram negative bacterial endotoxin lipopolysaccharide (LPS) on the formation of EBs from hESCs were screened for their toxic activity. LPS is known to be involved in genital tract infection related pathogenesis and pregnancy losses.

EBs [1] = test: In vitro 3-D embryo implantation model: attachment and outgrowth of EBs
Excerpt: An in vitro 3-dimensional (3-D) model/system for embryo implantation employing EBs in place of embryos was developed. The EBs collected on different days were subjected to implantation/attachment on the artificial substratum/surface.
To make this artificial surface regular tissue culture dishes or organ culture dishes were coated with about 1 to 2 mm thick coating of 0.5 to 1% low melting or high melting agarose in DPBS. A few wells of about 1 to 2 mm diameter are created using sterile paper disks, preferable in the center of the dish, which were removed after the agarose solidifies. Alternatively a horizontal tube like structure can be created by casting the gel over a fine glass capillary, which can be withdrawn as the agarose solidifies. This cavity/depression or tube like structure of agarose is then coated with matrix proteins like matrigel, collagen, fibronectin, laminin, gelatin etc. The coated agarose dishes were also layered with mouse or human endometrial stromal cells obtained from primary cultures or cell lines. The EBs were placed carefully in the cavity created or flushed inside the tube using a bent pasture pipette. The cells were cultured in normal standard EB media.
The EBs adhere and outgrows spreading out as a monolayer of cells on the extracellular matrix. Some cells invaded the surrounding agarose by day 10. A failure to implant/outgrow within ten days on this matrix after exposure to the drug/molecule indicates an abnormality. However, some drugs/could also support/enhance the process of attachment and outgrowth of the EBs. These molecules were screened for several other possible applications, though these may not necessarily be safe for embryonic development.
Four day old EBs were cultured on agarose and fibronectin coated surfaces. […] However, as Y27632 supports and enhances outgrowth, the effect of this drug on the expression profiles of the lineage markers and other genes needs to be screened for evaluating effect on normal development.
The model consists of a culture plate which is coated with Low melting (0.5%) agarose, A well of various depths is created in the agarose by various means eg: putting sterile filter paper disks while casting the gel and removing them latter. The gel is then coated with extracellular matrix components like fibronectin, collagen, laminin, etc. Human endometrial stromal fibroblast cell line CRL4003 is grown on this extracellular matrix as a monolayer. The spherical embryoid bodies or embryo like entities at day 4.5 are injected or pipetted into these cavities. The attachment is allowed in a culture media regularly used for hESC culture, without FGF2 supplementation (FIG. 1).
3. Lineage induction studies: The embryoid bodies after attachment to the implantation site differentiates to all lineages.
Method: Spherical Cytic EBs were collected on day 4.5 and exposed to the continuous presence of Y27632 (various doses were used). […] The control cytic EB had however just attached with smaller area of outgrowth showing that this dose of Y27632 can help in initial implantation of embryo during pregnancy.

[2] = tested on: EBs derived from hESC line HUES9; test: Immunofluorescence localization of HMGB1 and Brachury in EBs; conditions: for Brachury protein expression (immunofluorescence): day 4.5, normal EBs positive
Excerpt: Exposure of EBs to LPS: EBs at day-2.5 were exposed to 12.5 pg/ml of Endotoxin/lipopolysaccharide (LPS) (Sigma) for 48 hrs supplemented in culture medium. […] Post exposure, the control and endotoxin treated EBs were divided in two groups. One group was lysed in TRIZOL for RNA isolation and the other group was fixed in 4% paraformaldehyde for immunofluorescence. The expression profile of the ectoderm, endoderm, mesoderm and trophectoderm lineage markers like PHI-tubulin, GATA4, BMP2, Brachury and β-hCG etc. were studied by RT-PCR and Immunofluorescence. The expression of the LPS-inducible and pluripotency related DNA binding protein HMGB1 was also studied in both the control and treated EBs.
Immunofluorescence and Cell counting: HESCs were grown on coverslips coated with MEFs and then fixed with 4% paraformaldehyde and 5% sucrose (Sigma) followed by permeabilization in 0.2% Triton X100 (Sigma). The slides were then incubated with primary antibodies 1:500 dilution of SSEA4 (Chemicon, Calif., USA), 5 ug/ml Nanog (Santa Cruz Biotechnology, CA, USA), 10 μg/ml Brachury (R&D Systems Inc. Minneapolis, USA), and 1.5 μg/ml HMGB1 (Sigma) overnight at 4° C. After washing thrice with PBS, fluorescein isothiocyanate/Texas red-labeled Secondary antibodies against the primary goat/rabbit/mouse were added as 1:500 dilutions and incubated for 2 hours. DAPI (Sigma) was used for nuclear staining and then washed with PBS. The negative controls were done without primary antibodies. Slides were mounted with DABCC (Sigma) and images were acquired using Nikon Eclipse 90i microscope (Nikon Corporation, Japan) and Image-Pro Express software (Media Cybernetics, Inc, Silver Spring, Md.). The results were then compared with the control cells (non-LPS treated EBs). To count the number of cells per EB, the number of DAPI stained nuclei were counted in 10 each of the control and LPS treated EBs.

[3] = tested on: EBs derived from hESC line HUES9; test: Comet assay: DNA fragmentation in EBs; conditions: EBs exposed for 48 hours
Experimental: Comet assay: Detection of DNA damage in individual EBs was carried out with a slight modification of the method described by. Comet tail length was calculated by measuring the streak of DNA comet tail between the edge of the embryoid bodies till the end of tail using Nikon Eclipse 90i microscope (Nikon Corporation, Japan) and Image-Pro Express software (Media Cybernetics, Inc, Silver Spring, Md.).

EBs [4] = test: Methylation specific PCR (MSP) and mRNA expression of epigenetically regulated genes in EBs; conditions: 48 hrs, 5 ug/ml
Excerpt: Methylation status of several of the epigenetically regulated genes and the imprinted genes in response to exposure to various compounds/drugs or biologicals were screened.

Substance: lipopolysaccharide [LPS]
- EB formation from hESCs (hESCs (EB formation)): complete inhibition of EB formation
- attachment and outgrowth of EBs (EBs [1]; four day old EBs on agarose and fibronectin coated surfaces, 15 pg/ml and above): completely inhibited
- degeneration, attachment and outgrowth of EBs in implantation model (EBs [1]; high dose, 48 hrs): degeneration of the EBs, and they failed to attach and outgrow
- ability of attached EBs to give rise to all lineages (EBs [1]; lineage induction studies, in presence of the compound): compromised
- Brachury protein expression (immunofluorescence) ([2]; 12.5 pg/ml for 48 hrs): no signals
- Brachury protein expression (immunofluorescence) ([2]; 12.5 pg/ml for 48 hrs, listed as lipopolysaccharides): loss of expression
- localization of HMGB1 (immunofluorescence) ([2]; 12.5 pg/ml for 48 hrs, normal EBs lacked signals): cytoplasmic localization; also recorded: localized in the cytoplasm
- Brachury expression on day 9.5 ([2]; EBs exposed to 12.5 pg/ml for 48 hrs, tested on day 9.5): did not show a positive signal
- DNA tailing or fragmentation compared to control [3]: more DNA tailing or fragmentation
- DNA tailing or fragmentation (comet tail length, average) ([3]; control 2.48±1.0701 μm): 21.48±12.443 μm
- mRNA expression of SDHD, DYPS and CDH1 (EBs [4]; control EBs positive): negative mRNA expression/silencing
- methylation status of SDHD, DYPS and CDH1 (MSP after bisulphite treatment) (EBs [4]; control: one of the alleles methylated): both the alleles of these genes were methylated
